Measured values taken from publication PMC8400955 (Pharmaceuticals, 2021).
“And” between values parts separate entries of the source, which are not always exact repeats. Equal entries are not always repeated.

How the values were obtained:
CYP3A4 [1] = molecular target: CYP3A4 (Homo sapiens, UniProt P08684); test: CYP phenotyping, recombinant CYP3A4
CYP2C19 = CYP2C19 (Homo sapiens, UniProt P33261); test: CYP inhibition in human liver microsomes, CYP2C19; assay type: in vitro ADME; settings: HLM, marker substrate Mephenytoin
Procedure: . The inhibition of CYP2B6 and 3A4 (when midazolam was used as the substrate) by ZB716 was not observed. The inhibitory potential of ZB716 on human CYP enzyme activities appears relatively low.
The final concentrations of ZB716 in the incubation system were 0, 0.05, 0.15, 0.5, 1.5, 5, and 15 µM (final organic solvent concentration ≤ 1%). […] . […] The concentrations of the isoform-specific metabolites derived from marker substrates were measured by UPLC–MS/MS. The IC50 values were calculated from the percentages of the rate of the metabolite formation relative to non-inhibited controls vs. the concentrations of ZB716 or positive control inhibitors. All incubations were performed in triplicate. The mean of the enzyme activity (% of non-inhibited control) for each concentration was plotted against the log inhibitor concentration, and fitted to an IC50 curve.

[2] = Plasma protein binding by equilibrium dialysis, monkey; assay type: in vitro ADME; settings: plasma (EDTA-K2 as anticoagulant)
Procedure: (§1) The in vitro binding of ZB716 to plasma proteins was determined by equilibrium dialysis technique in mouse, rat, dog, monkey, and human plasma (EDTA-K2 as anticoagulant), over the concentration range of 0.1–10 μM. The free concentration of ZB716 was below the lower limit of quantitation at 0.1, 1, and 10 μM in human, monkey, dog, rat, and mouse plasma.
(§2) The equilibrium dialysis method was used to investigate the in vitro binding of ZB716 to human, monkey, dog, rat, and mouse plasma proteins. The dialysis phosphate buffer solution (100 mM, pH 7.4) and plasma samples containing 0.1, 1, and 10 μM of ZB716 were added to separate chambers of dialysis wells of the HTDialysis device. The dialysis plate was placed in an incubator at 37 °C with 5% CO2 at approximately 100 rpm for 6 h. After incubation, the seal was removed, and 50 μL each of post-dialysis samples was pipetted from both the buffer and plasma chambers into fresh 96-well plates. The samples were analyzed via UPLC–MS/MS. The bound fraction, unbound fraction, recovery (%), and remaining (%) were calculated by Equations (2)–(5):%Unbound = (Conc.buffer chamber/Conc.plasma chamber) × 100(2) %Bound = 100% − %Unbound (3) %Recovery = (Conc.buffer chamber + Conc.plasma chamber)/Conc.Total sample × 100 (4) %Remaining = Conc.6h/Conc.0h × 100 (5)

monkey plasma proteins = test: as above; assay type: in vitro ADME; settings: for Remaining: 6 h
Procedure: as §1, §2

[3] = Metabolic stability in mouse hepatocytes; assay type: in vitro ADME
Procedure: (§3) Hepatocytes of humans (#X008001), dogs (#M00205), rats (#M00005), and mice (#M005052) were purchased from BioIVT, NY, USA. Monkey hepatocytes were procured from RILD, Shanghai, China. The metabolic stability of ZB716 in human, monkey, dog, rat and mouse hepatocytes was investigated by incubating ZB716 with human, monkey, dog, rat, and mouse hepatocytes (0.5 × 10^6 cells/mL), or with incubation medium only.
(§4) parent disappearance vs. incubation time curve.
(§5) Scaled-up Clint = kV/N × Scaling Factor
(§6) metabolite formed during the reaction.

mouse hepatocytes = test: Metabolic stability in mouse hepatocytes; assay type: in vitro ADME; settings: 1 μM
Procedure: as §3, §4, §5, §6

CYP2C9 = CYP2C9 (Homo sapiens, UniProt P11712); test: CYP phenotyping, recombinant CYP2C9
CYP3A4 [4] = test: CYP induction (enzyme activity) in cryopreserved human hepatocytes, CYP3A4; assay type: in vitro ADME; settings: for fold induction at 72 h, 0.15 µM / fold induction at 72 h, 1.5 µM / fold induction at 72 h, 5 µM / fold induction at 72 h, 15 µM: human, plated cryopreserved human hepatocytes
human liver microsomes = test: ZB716 remaining in human liver microsomes with and without CYP-specific chemical inhibitors; settings: HLM
[5] = 2 µM ZB716, with CYP1A2 inhibitor Furafylline
[6] = 2 µM ZB716, with CYP2A6 inhibitor Tranylcypromine
[7] = 2 µM ZB716, with CYP2B6 inhibitor Ticlopidine
[8] = 2 µM ZB716, with CYP2C8 inhibitor Montelukast
[9] = 2 µM ZB716, with CYP2C9 inhibitor Sulfaphenazole
[10] = 2 µM ZB716, with CYP2C19 inhibitor N-3-benzylnirvanol
[11] = 2 µM ZB716, with CYP2D6 inhibitor Quinidine
[12] = 2 µM ZB716, with CYP3A inhibitor Ketoconazole

CYP3A4 (Homo sapiens, UniProt P08684), sequence (P08684 whole entry): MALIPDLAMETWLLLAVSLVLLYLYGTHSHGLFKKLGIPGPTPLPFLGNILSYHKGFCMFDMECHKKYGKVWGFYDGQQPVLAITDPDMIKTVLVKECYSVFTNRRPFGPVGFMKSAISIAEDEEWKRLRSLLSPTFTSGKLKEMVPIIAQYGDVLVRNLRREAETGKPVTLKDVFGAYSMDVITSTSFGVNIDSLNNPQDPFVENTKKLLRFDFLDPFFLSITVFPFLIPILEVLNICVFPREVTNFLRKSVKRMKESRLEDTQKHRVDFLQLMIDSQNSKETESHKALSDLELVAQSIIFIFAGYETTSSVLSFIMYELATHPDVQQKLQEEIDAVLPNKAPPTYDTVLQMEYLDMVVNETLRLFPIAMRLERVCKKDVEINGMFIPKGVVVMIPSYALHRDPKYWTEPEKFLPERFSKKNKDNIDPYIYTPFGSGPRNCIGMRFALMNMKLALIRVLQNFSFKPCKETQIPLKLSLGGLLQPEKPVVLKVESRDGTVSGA
CYP2C9, sequence (P11712 whole entry): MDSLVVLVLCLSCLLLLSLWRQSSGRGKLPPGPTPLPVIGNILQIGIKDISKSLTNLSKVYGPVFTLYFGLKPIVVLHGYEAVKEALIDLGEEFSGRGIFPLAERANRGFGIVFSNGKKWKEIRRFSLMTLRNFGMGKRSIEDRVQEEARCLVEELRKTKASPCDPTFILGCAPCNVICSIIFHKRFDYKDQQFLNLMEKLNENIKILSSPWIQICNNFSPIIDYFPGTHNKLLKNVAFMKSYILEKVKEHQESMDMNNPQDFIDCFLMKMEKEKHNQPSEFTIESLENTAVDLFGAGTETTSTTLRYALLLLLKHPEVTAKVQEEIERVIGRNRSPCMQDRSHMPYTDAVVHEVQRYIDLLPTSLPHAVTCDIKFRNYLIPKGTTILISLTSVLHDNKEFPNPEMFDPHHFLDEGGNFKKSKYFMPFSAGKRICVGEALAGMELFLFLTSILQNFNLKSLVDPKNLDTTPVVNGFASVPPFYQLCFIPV
CYP2C19, sequence (P33261 whole entry): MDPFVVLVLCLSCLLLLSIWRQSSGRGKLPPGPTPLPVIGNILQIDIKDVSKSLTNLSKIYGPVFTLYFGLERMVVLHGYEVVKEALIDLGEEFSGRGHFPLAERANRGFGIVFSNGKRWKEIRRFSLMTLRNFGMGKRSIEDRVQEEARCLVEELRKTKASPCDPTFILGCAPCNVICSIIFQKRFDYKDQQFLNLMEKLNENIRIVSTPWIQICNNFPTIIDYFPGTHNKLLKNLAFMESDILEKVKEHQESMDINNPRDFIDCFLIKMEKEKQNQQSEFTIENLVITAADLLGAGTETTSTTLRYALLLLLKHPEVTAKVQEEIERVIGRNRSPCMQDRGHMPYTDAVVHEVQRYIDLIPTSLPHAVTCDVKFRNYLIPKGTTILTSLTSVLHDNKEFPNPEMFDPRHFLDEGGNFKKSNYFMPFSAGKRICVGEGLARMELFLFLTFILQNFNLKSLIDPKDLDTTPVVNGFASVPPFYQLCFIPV

## C[C@]12CC[C@@H]3c4ccc(B(O)O)cc4C[C@@H](CCCCCCCCC[S+]([O-])CCCC(F)(F)C(F)(F)F)[C@H]3[C@@H]1CC[C@@H]2O (some centres unmarked) [ZB716, fulvestrant-3-boronic acid]
CYP3A4 [1]; human
  half-life at 2 µM: 5.91 ± 0.39 min
CYP3A4 [1]; recombinant CYP3A4, 2 µM ZB716
  Clint: 2.35 µL/min/pmol CYP and 2.35 ± 0.15 µL/min/pmol CYP
CYP2C19
  IC50: 2200 nM
[2]; pH 7.4, 0.1 μM
  recovery at 6 h, 0.1 μM: < 68.2%
[2]; pH 7.4, 1 μM
  recovery at 6 h, 1 μM: < 70%
[2]; pH 7.4, 10 μM
  recovery at 6 h, 10 μM: < 87.2%
Monkey plasma proteins; 0.1 μM
  Bound: >96.4%
  Unbound: <3.63%
  Remaining: 65.3 ± 2.8%
Monkey plasma proteins; 1 μM
  Bound: >99.6%
  Unbound: <0.326%
  Remaining: 70.9 ± 4.8%
Monkey plasma proteins; 10 μM
  Bound: >99.97%
  Unbound: <0.0308%
  Remaining: 93.9 ± 10.0%
[3]; read-out: Estimated In Vitro t1/2
  half-life at 1 μM: 34.4 ± 0.6 min
[3]; read-out: In Vitro Clint
  hepatocyte CLint at 1 μM: 40.3 ± 0.7 µL/min/1e6 cells
[3]; read-out: Scaled-Up Clint
  CLint scaled at 1 μM: 476 ± 8 mL/min/kg
Mouse hepatocytes
  Remaining at 120 min: 6.24 ± 0.58%
CYP2C9; human
  half-life at 2 µM: 18.6 ± 0.4 min
CYP2C9; recombinant CYP2C9, 2 µM ZB716
  Clint: 0.746 ± 0.015 µL/min/pmol CYP
CYP3A4 [4]; donor one, 0.15 µM
  Percent of Control: −4.55%
  fold induction at 72 h, 0.15 µM: 0.774 ± 0.078
CYP3A4 [4]; donor one, 1.5 µM
  Percent of Control: −7.08%
  fold induction at 72 h, 1.5 µM: 0.649 ± 0.085
CYP3A4 [4]; donor one, 5 µM
  Percent of Control: 4.85%
  fold induction at 72 h, 5 µM: 1.24 ± 0.18
CYP3A4 [4]; donor one, 15 µM
  Percent of Control: 9.95%
  fold induction at 72 h, 15 µM: 1.49 ± 0.21
CYP3A4 [4]; donor three, 0.15 µM
  Percent of Control: −5.29%
  fold induction at 72 h, 0.15 µM: 0.61 ± 0.043
CYP3A4 [4]; donor three, 1.5 µM
  Percent of Control: −2.34%
  fold induction at 72 h, 1.5 µM: 0.828 ± 0.082
CYP3A4 [4]; donor three, 5 µM
  Percent of Control: −6.62%
  fold induction at 72 h, 5 µM: 0.513 ± 0.081
CYP3A4 [4]; donor three, 15 µM
  Percent of Control: −9.26%
  fold induction at 72 h, 15 µM: 0.318 ± 0.005
CYP3A4 [4]; donor two, 0.15 µM
  Percent of Control: −2.26%
  fold induction at 72 h, 0.15 µM: 0.797 ± 0.1
CYP3A4 [4]; donor two, 1.5 µM
  Percent of Control: 4.83%
  fold induction at 72 h, 1.5 µM: 1.43 ± 0.14
CYP3A4 [4]; donor two, 5 µM
  Percent of Control: 22.4%
  fold induction at 72 h, 5 µM: 3.01 ± 0.33
CYP3A4 [4]; donor two, 15 µM
  Percent of Control: 21.5%
  fold induction at 72 h, 15 µM: 2.92 ± 0.25
Human liver microsomes; 2 µM ZB716, Without Inhibitor
  Inhibition %: 0.00%
  Remaining Percentage (%) at 15 min: 18.7 ± 1.2%
  Remaining Percentage (%) at 60 min: 5.74 ± 0.52%
Human liver microsomes; [5]
  Inhibition %: −48.9%
  Remaining Percentage (%) at 15 min: 8.24 ± 0.80%
  Remaining Percentage (%) at 60 min: 1.43 ± 0.51%
Human liver microsomes; [6]
  Inhibition %: −14.4%
  Remaining Percentage (%) at 15 min: 14.8 ± 2.5%
  Remaining Percentage (%) at 60 min: 5.24 ± 2.31%
Human liver microsomes; [7]
  Inhibition %: −9.46%
  Remaining Percentage (%) at 15 min: 15.9 ± 0.8%
  Remaining Percentage (%) at 60 min: 2.09 ± 0.23%
Human liver microsomes; [8]
  Inhibition %: −15.1%
  Remaining Percentage (%) at 15 min: 14.6 ± 2.4%
  Remaining Percentage (%) at 60 min: 3.41 ± 0.30%
Human liver microsomes; [9]
  Inhibition %: −31.8%
  Remaining Percentage (%) at 15 min: 10.9 ± 0.1%
  Remaining Percentage (%) at 60 min: 2.31 ± 0.18%
Human liver microsomes; [10]
  Inhibition %: −22.5%
  Remaining Percentage (%) at 15 min: 12.8 ± 1.2%
  Remaining Percentage (%) at 60 min: 3.10 ± 0.44%
Human liver microsomes; [11]
  Inhibition %: 74.7%
  Remaining Percentage (%) at 15 min: 65.6% and 65.6 ± 6.0%
Human liver microsomes; [12]
  Inhibition %: 88.2%
  Remaining Percentage (%) at 15 min: 74.4% and 74.4 ± 5.8%
  Remaining Percentage (%) at 60 min: 43.4 ± 2.8%
